One series can be described thus: Krafft temperature (TK). The format is physicochemical. The method, then:
CHNS elemental analysis was carried out by a Vario EL cube (Elementar, Germany) calibrated on acetanilide. Electrospray ionization mass spectroscopy (ESI-MS) (micrOTOF-Q instrument; Bruker Daltonics, Germany) allowed for the MS spectra to be obtained. The ESI-MS instrument was operated in the positive ion mode and calibrated with the Tunemix^TM mixture (Bruker Daltonics, Germany). The mass accuracy was better than 5 ppm. The obtained mass spectra were analyzed using DataAnalysis 3.4 software (Bruker Daltonics, Germany). ^1H NMR spectra were recorded on a Bruker AMX-500 spectrometer, using CDCl3 as a solvent. ^1H chemical shifts (in ppm) were calibrated to TMS as an internal reference. Melting points were determined using a Boetius melting point apparatus, while Krafft temperatures were determined according to the directions given in [47]. CMC is the minimum concentration above which micelles are formed in aqueous liquid. To obtain the CMC values, we used McGowan’s model. […] Molecular characteristic volumes (Vx) are found by the addition of the atomic characteristic volumes and the subtraction for the same factory (6.56 × 10^−6 m^3 mol^−1) for every covalent bond.

In a further series the test system is C. glabrata ATCC 90030. The experiment in a line: Interaction of AABs (3 µM) with antifungal agents, modified checkerboard. The class given is cell-based, Candida glabrata.
In the next series the test system is C. glabrata 2586. The description is as above. The format is cell-based, Candida glabrata.
Another series concerns C. glabrata 2853. The series is described as above. The class given is cell-based, Candida glabrata.
The test system of the next series is C. glabrata DSM 1226. Also on record: method as in PMID 37508306. As to conditions: ref [12]; cited from earlier work.
Series [1] relates to C. glabrata clinical isolate C8 (C18). Also on record: method as in PMID 37508306. As to conditions: ref [12]; cited from earlier work.
Series [2] has as its system C. glabrata clinical isolate C27. Details: method as in PMID 37508306. The following applies: ref [12]; cited from earlier work.
Another series has as its system ERG11 and ALS3. Details: method as in PMID 37508306. As to conditions: qRT-PCR; ref [12]; cited from earlier work. Background: In qPCR the cycle at which signal appears reflects the starting amount.
The mark [3] stands for this setting: C9 at constant 3 µM, dilutions in µg/mL.
[4] abbreviates: C11 at constant 3 µM, dilutions in µg/mL.
[5] abbreviates: C13 at constant 3 µM, dilutions in µg/mL.
[6] abbreviates: C15 at constant 3 µM, dilutions in µg/mL.

Turning to `CCCCCCCCCC(=O)N(C)CCC[N+](C)(C)CC(=O)[O-]` [C9], the “TK (Krafft temperature)” value in “Krafft temperature (TK)” was less than 0 °C.
A word on the MIC: it is the lowest concentration that inhibits growth of the organism. As for β-aescin, the “Multiplicity factor (MF) with C9” value with C. glabrata ATCC 90030 (C9 3 µM, |MF| = MIC90 alone/MIC90 with AAB) came to 1; in the series with C. glabrata 2586 (C9 3 µM), 2; with C. glabrata 2853 (C9 3 µM) it was 1. Besides, the “MIC90 of antimycotic combined with C9” value in the series with C. glabrata ATCC 90030 (setting [3]), in the series on C. glabrata 2586 (setting [3]) and in the series with C. glabrata 2853 (setting [3]) was 128 in each case. The “Multiplicity factor (MF) with C11” value was 1 with C. glabrata ATCC 90030 (C11 3 µM), 2 in the series with C. glabrata 2586 (C11 3 µM) and 1 with C. glabrata 2853 (C11 3 µM). Also, the “MIC90 of antimycotic combined with C11” value in the series on C. glabrata ATCC 90030 (setting [4]), with C. glabrata 2586 (setting [4]) and with C. glabrata 2853 (setting [4]) was 128 throughout. Moreover, the “Multiplicity factor (MF) with C13” value is listed as 1 with C. glabrata ATCC 90030 (C13 3 µM), 2 in the series on C. glabrata 2586 (C13 3 µM) and 1 in the series with C. glabrata 2853 (C13 3 µM). Besides, the “MIC90 of antimycotic combined with C13” value in the series on C. glabrata ATCC 90030 (setting [5]), with C. glabrata 2586 (setting [5]) and in the series with C. glabrata 2853 (setting [5]) was 128 in each case. In addition, the “Multiplicity factor (MF) with C15” value in the series with C. glabrata ATCC 90030 (C15 3 µM) came to 1; in the series with C. glabrata 2586 (C15 3 µM), 2; with C. glabrata 2853 (C15 3 µM), 1. Also, the “MIC90 of antimycotic combined with C15” value in the series with C. glabrata ATCC 90030 (setting [6]), in the series with C. glabrata 2586 (setting [6]) and in the series on C. glabrata 2853 (setting [6]) was 128 throughout. The MFC is on record as 160 µg/mL in the series with C. glabrata DSM 1226, 100 µg/mL in series [1] and 100 µg/mL in series [2]. In addition, the values for the MIC (with C. glabrata DSM 1226; in series [1]; in series [2]) were 80 µg/mL, 40 µg/mL and 50 µg/mL, respectively. In addition, the “Expression of ERG11 and ALS3” value with ERG11 and ALS3 was “downregulation”.

The values are drawn from article PMC10932281, “A Combination of β-Aescin and Newly Synthesized Alkylamidobetaines as Modern Components Eradicating the Biofilms of Multidrug-Resistant Clinical Strains of Candida glabrata” (International Journal of Molecular Sciences, 2024).
